Where two headings read alike, the source gives them in different places.
Test system: 280 human cancer cell lines
Test: OncoPanel cell proliferation assay (10-day)
Assay type: cell-based
Settings: Homo sapiens; for IC50: read-out: Cell Count IC50; for EC50: read-out: Cell Count EC50; for GI50: read-out: Cell Count GI50
[1] = HT-1080, HT-1080, Soft Tissue - Sarcoma
[2] = HUH-6-clone5, HUH-6 Clone 5, Liver
[3] = Hs 821.T, Soft Tissue - Sarcoma
[4] = Hs 888.Sk, Soft Tissue - Osteosarcoma

## CC(C)=CCC[C@H](C)[C@@H]1CC[C@@H](C)c2c1cc(C)c(O)c2O [Compound 4, 7,8-dihydroxyserrulat-14-ene]
HOS, Soft Tissue - Osteosarcoma
  IC50: 3.08 µM
HPAF-II, Pancreas
  EC50: 12.4 µM
  GI50: 12.4 µM
  IC50: 12.5 µM
HT1197, HT-1197, Bladder
  EC50: 15.6 µM
  GI50: 15.2 µM
  IC50: 15.6 µM
HT, Lymphoma
  EC50: 4.49 µM
  GI50: 4.46 µM
  IC50: 4.49 µM
HT-3, Female GU - Cervix
  EC50: 14.5 µM
  GI50: 14.3 µM
  IC50: 14.5 µM
HT-29, HT-29, Colon
  EC50: 17 µM
  GI50: 17 µM
  IC50: 17 µM
[1]
  EC50: 4.42 µM
  GI50: 4.42 µM
  IC50: 4.42 µM
HT-1376, HT1376, Bladder
  EC50: 14.1 µM
  GI50: 13.8 µM
  IC50: 14.1 µM
[2]
  EC50: 9.63 µM
  GI50: 9.46 µM
  IC50: 9.63 µM
HeLa, Female GU - Cervix
  EC50: 21.1 µM
  GI50: 21.1 µM
  IC50: 21.1 µM
HepG2, HepG2, Liver
  EC50: 25.6 µM
  GI50: 25.6 µM
  IC50: 25.7 µM
Hs 229.T, Lung - NSCLC
  EC50: 25.9 µM
  GI50: 25.2 µM
  IC50: 26.3 µM
Hs 294T, Skin (Melanoma)
  EC50: 8.33 µM
  GI50: 8.23 µM
  IC50: 8.33 µM
Hs 445, Hs 445, Lymphoma
  EC50: 5.8 µM
  GI50: 5.74 µM
  IC50: 5.8 µM
Hs 611.T, Lymphoma
  EC50: 5.11 µM
  GI50: 5.05 µM
  IC50: 5.11 µM
Hs 683, Hs 683, CNS - Glioma
  EC50: 24.5 µM
  GI50: 24.3 µM
  IC50: 24.6 µM
Hs 688(A).T, Skin (Melanoma)
  EC50: 7.43 µM
  GI50: 6.88 µM
  IC50: 7.68 µM
Hs746T, HS 746T, Stomach
  EC50: 20 µM
  GI50: 17.1 µM
  IC50: 20 µM
Hs766T, Hs 766T, Pancreas
  EC50: 9.34 µM
  GI50: 9.08 µM
  IC50: 9.34 µM
[3]
  EC50: 12.6 µM
  GI50: 9.99 µM
  IC50: 12.9 µM
[4]
  EC50: 12.3 µM
  GI50: 12.1 µM
  IC50: 12.7 µM
Hs 934.T, Skin (Melanoma)
  EC50: 11.1 µM
  GI50: 10.2 µM
  IC50: 11.6 µM
Hs 936.T(C1), Skin (Melanoma)
  EC50: 9.1 µM
  GI50: 10.2 µM
  IC50: 10.4 µM
Hs-578T, Hs 578T, Breast
  EC50: 15 µM
  GI50: 14.9 µM
  IC50: 15 µM
HuCCT-1, HuCCT1, Liver
  EC50: 24.8 µM
  GI50: 24.8 µM
  IC50: 24.8 µM
HuP-T4, HuP-T4, Pancreas
  EC50: 13.7 µM
  GI50: 13.6 µM
  IC50: 13.7 µM
J82, Bladder
  EC50: 6.22 µM
  GI50: 6.09 µM
  IC50: 6.22 µM
JAR, Placenta
  EC50: 6.53 µM
  GI50: 6.49 µM
  IC50: 6.53 µM
JEG-3, JEG-3, Placenta
  EC50: 6.5 µM
  GI50: 6.48 µM
  IC50: 6.51 µM
JIYOYE, Lymphoma
  EC50: 3.55 µM
  GI50: 3.55 µM
  IC50: 3.55 µM
JeKo-1, JeKo-1, Lymphoma
  EC50: 3.91 µM
  GI50: 3.91 µM
  IC50: 3.91 µM
Jurkat, Leukemia
  EC50: 3.59 µM
  GI50: 3.58 µM
  IC50: 3.59 µM
K562, K562, Leukemia
  EC50: 12.2 µM
  GI50: 12.2 µM
  IC50: 12.2 µM
KATO III, Stomach
  EC50: 10.9 µM
  GI50: 11.1 µM
  IC50: 11.1 µM
KHOS-240S, Soft Tissue - Osteosarcoma
  EC50: 4.96 µM

Source: patent US11331299B2, “Medicinal use of serrulatane diterpenes” (The University of Sydney, priority 2016, dated 2022)
